What was measured:
[1] = test system: U87MG human glioma cell line; test: Cell viability test (CCK-8) in U87MG; format: cell-based; conditions: 50 μM GL equivalent, after 48 h treatment
Description: Cell viability was determined using a cell counting kit-8 (CCK-8). U87MG and HUVECs (seeding density: 0.75 × 10^4 cells per well) in 96-well culture plates were treated with GL, Lf, or Lf-GL (25 to 200 × 10^–6 M of GL equivalent concentration) and were incubated for different periods of time (24, 48, and 72 h). After washing with PBS, they were treated with a cell culture medium containing a CCK-8 assay kit (Abbkine) and were incubated at 37 °C and 5% CO2 for 2 h. Then, absorbance was measured at 450 nm in a micro-plate reader (VLBL00D0, Thermo Fisher Scientific). Results were quantified using Sigma Plot (Systat Software, USA). To determine the effect of extracellular HMGB1 in GBM and endothelial cell proliferation, U87MG and HUVECs were seeded in 96-well culture plates (seeding density: 0.75 × 10^4 cells per well) and GL, Lf, or Lf-GL (50 × 10^–6 M GL equivalent concentration) were added to cells with or without HMGB1 protein (U87MG: 0.1 μg mL^−1, and HUVEC: 1 μg mL^−1). Cells were incubated for different periods of time (24, 48, and 72 h).

[2] = In vivo pharmacokinetics study
[3] = test system: orthotopic GBM (U87MG) mice model; test: Survival in orthotopic GBM mouse model; format: in vivo, Balb/c nude mice; conditions: i.v. GL equivalent 50 mg kg^−1 (Lf 5 mg kg^−1), 28 days
Description: To establish the orthotopic GBM mice model, GBM cells (U87MG, inoculation density: 1.0 × 10^6 cells per 10 μL) were stereotactically injected into the right striatum of Balb/c nude mice. Then, mice were randomly divided into four groups (n = 5): control, GL, Lf, and Lf-GL treated group. […] After four weeks, mice were sacrificed, and organs were harvested and fixed with 4% paraformaldehyde for further analysis.

HMGB1 box A = biological target: HMGB1 box A; set-up: method as in PMID 17462578; conditions: previously reported; cited from earlier work
[4] = test system: orthotopic GBM (U87MG) mice model; test: TUNEL assay of GBM tissue; format: in vivo, Balb/c nude mice; conditions: daily i.v., 14 days (control 28.5 ± 4.8)
From the text: (§1) After two weeks, mice were sacrificed, and the brains were harvested and fixed with paraformaldehyde (4%). Then, tissue processing was automatically conducted using a Leica TP1020 semi-enclosed Benchtop Tissue Processor (Leica Biosystems, Wetzlar, Hesse, Germany), followed by embedding in paraffin blocks. Paraffin blocks were sliced into 5 μm thick slices using a Leica RM2145 Microtome (Leica Biosystems). Nissl staining was used to stain brain tissue slides with pre-warmed 0.1% Cresyl Violet Stain Solution (Abcam). TUNEL assays were conducted following the manufacturer’s instructions. For immunofluorescence staining; anti-HMGB1 antibody (Abcam), anti-Ki67 antibody (Abcam), anti-CD31 antibody (Abcam), and anti-VEGF antibody (Abcam) were used as primary antibodies, and goat anti-rabbit IgG-H&L Alexa Fluor 488 and goat anti-rabbit IgG H&L Alexa Fluor 647 were used as secondary antibodies, followed by DAPI mounting.

HMGB1 [5] = test: HMGB1 ELISA of U87MG culture medium; format: cell-based, human; conditions: 50 μM GL equivalent, 48 h (control 131.8 ± 11.4)
Description: U87MG cells were seeded in 100 mm-cell culture dishes (2.2 × 10^6 cells per dish) and treated with GL, Lf, or Lf-GL (50 × 10^–6 M GL equivalent concentration) for 48 h. After incubating, cells were collected using a cell scrapper and were centrifuged for 3 min at 150 × g. Supernatant was collected as cell culture medium, and pellets were washed with cold PBS twice and transferred into a microcentrifuge tube. Tubes were centrifuged, and then pellets were resuspended in 500 μL 1X hypotonic buffer and incubated on ice. Then, 25 μL of NP40 was added and the mixture was agitated using a vortex mixer at the highest setting. Homogenates were centrifuged for 10 min at 842 × g at 4℃. Supernatant was collected as the cytoplasmic fraction, and pellets were resuspended in cell extraction buffer (50 μL) and were incubated for 30 min on ice with vortexing at 10 min intervals. Then, homogenates were centrifuged for 30 min at 14,000 × g at 4℃. Supernatant was collected as the nuclear fraction. The amount of HMGB1 in the samples was measured using a HMGB1 ELISA kit (Abbkine), and absorbance was measured at 450 nm in a micro-plate reader. A DNA assay (Quant-iT™ dsDNA Assay Kit, Invitrogen) was also conducted to express HMGB1 concentrations in equivalent amounts of DNA.

[6] = test system: orthotopic GBM (U87MG) mice model; test: Nissl staining: GBM/normal brain ratio; format: in vivo, Balb/c nude mice; conditions: daily i.v. GL equivalent 50 mg kg^−1, 14 days (control 37.5 ± 2.3)
From the text: as §1

HMGB1 [7] = test: Immunofluorescence staining of HMGB1 in GBM tissue; format: in vivo, Balb/c nude mice; conditions: GBM mice, daily i.v. GL equivalent 50 mg kg^−1, 14 days (control 15.3 ± 1.7)
From the text: as §1

[8] = GBM targeted-GL by HPLC in brain homogenate; format: in vivo, orthotopic GBM model mice; conditions: Balb/c nude, mouse, brain homogenate, iv; orthotopic GBM mice, i.v. GL equivalent 50 mg kg^−1, 10 min after injection; read-out: GL concentration detected in brain homogenate
Description: Orthotopic GBM mice model mice were used for quantification of GBM targeting efficacy. The brain tissue was homogenized in deionized water at a 33.3 w/v (%) using a FastPrep-24 5G (MP biomedical, South Korea). The GL were added to pooled brain homogenate to obtain seven-point calibration curves with a range of 10–1000 ng mL^−1. Then, homogenate (50 μL) was mixed with methanol (100 μL). […] Thereafter, supernatants (100 μL) were mixed with mobile phase solution (900 μL), then filtered with a 0.22 μm syringe filter. Samples were collected in a 2 mL HPLC vial (Screw top vial, Waters, USA) and analyzed by HPLC at 254 nm. […] Mice were sacrificed and brain tissues were collected 10 min after the GL and Lf-GL injection. The samples for quantification were also conducted using the same process as GL standard preparation.

HMGB1 box B = biological target: HMGB1 box B; set-up: method as in PMID 17462578; conditions: previously reported; cited from earlier work
[9] = Balb/c, mouse, plasma, iv, 50 mg/kg

Compound: CC1(C)[C@@H](O[C@H]2O[C@H](C(=O)O)[C@@H](O)[C@H](O)[C@H]2O[C@@H]2O[C@H](C(=O)O)[C@@H](O)[C@H](O)[C@H]2O)CC[C@]2(C)[C@H]3C(=O)C=C4[C@@H]5C[C@@](C)(C(=O)O)CC[C@]5(C)CC[C@@]4(C)[C@]3(C)CC[C@@H]12 [GL, Glycyrrhizin]
- Number of cells, % of the original count [1]: 93.4 ± 4.8%
- AUC(0-t) [2, 9]: 102 µg·h/mL
- Cmax [2, 9]: 254 ± 117 µg/mL
- MRT [2, 9]: 4.6 min
- Tmax [2, 9]: 1 min
- half-life ([2]; Balb/c, mouse, plasma, iv, 50 mg/kg, T1/2, elimination half-life, mice, GL equivalent 50 mg kg^−1, plasma): ~3.8 min
- Time after administration until cleared from / remaining in circulation ([2]; mice, i.v., GL equivalent 50 mg kg^−1): 150 min
- Additional days of survival versus PBS control [3]: 4 days
- Kd (HMGB1 box A): 170 ± 3 µM
- TUNEL MFI [4]: 16.3 ± 2.8
- HMGB1 released into the medium of U87MG cells (HMGB1 [5]): 80.7 ± 4.5 ng/mL
- GBM/normal brain ratio [6]: 26.4 ± 5.7
- Mean fluorescence intensity (MFI) of HMGB1 (HMGB1 [7]): 6.2 ± 0.8
- concentration at 10 min [8]: 9800 ± 2300 ng/mL
- Kd (HMGB1 box B): 140 ± 3 µM

Source: PMC10200060, “Inhibition of DAMP actions in the tumoral microenvironment using lactoferrin-glycyrrhizin conjugate for glioblastoma therapy” (Biomaterials Research, 2023)
